Source: patent US20240327800A1, “HIGH THROUGHPUT LOCALIZED PASSIVE DIFFUSION DEVICE FOR PATTERNING ORGANOIDS” (University of Massachusetts, priority 2023, published 2024)

System: hESCs (H9) derived forebrain organoid
Test: Dorsal-ventral patterning of forebrain organoids with a gradient of Shh agonist (immunostaining)
Format: cell-based, human
Experimental: The cells were sub-passaged every 3 to 4 days by 80% to 90% confluence. Before cell culturing, the device 500 was incubated in 2% pluronic for one hour, rinsed with 1×DPBS three times, and dried out before adding the gelatin-transglutaminase mixture to layer 3. Before cell seeding, the medium and medium chambers were incubated at room temperature with E8 basal for up to 24 hrs. The gelatin in the microwells was aspirated after being soaked in the E8 basal before cell seeding.
Cells were seeded using E8 medium supplemented with 10 uM Rock inhibitor (Y27). 100, 000 cells suspended in 5 μl medium were then pipetted into each microwell. Then, the device 500 was centrifuged at 200 g for 2 mins. Then, another 1 ml and 500 μl of medium were added into the medium chamber and the morphogen chamber, respectively. The device 500 was placed into a 37 C.° incubator overnight to generate a cell aggregate. […] It was observed that the EBs were immobilized by growing them around the sutures. To grow EBs around the sutures, a high density of hESCs was seeded directly into the microwell. The size of the EB spheroid at day 8, around 500 μm, was consistent with the diameter of the EB at day 1. The size of EB spheroid could be grown by changing the E8 medium and adding 1% PS daily during continued culturing.
Essential 6 (E6) medium supplemented with 1% PS, 5 μM dorsomorphin (DM), and 10 μM SB-431542 for both medium and morphogen chambers for six days for dual SMAD inhibition. […] To generate a D-V patterned organoid, 5 μM of purmorphamine and 5 μM of IWP-2 were supplemented to the basal medium in the morphogen chamber for five days between day 14 to day 30. To generate cortical organoids, the basal medium was used for both the medium and the morphogen chamber. To generate subpallial organoids, purmorphamine and IWP-2 supplement medium were used for both chambers. The medium was changed daily until day 30.
The organoids were then rinsed with 1×DPBS two times for 10 mins, then fixed by incubating in 4% paraformaldehyde (Electron Microscopy Sciences) at 4 C.° overnight. […]

Compound: c1ccc2c(Oc3nc(Nc4ccc(N5CCOCC5)cc4)c4ncn(C5CCCCC5)c4n3)cccc2c1 [purmorphamine]
- D-V patterning (Uniform Pur control: purmorphamine in both medium chamber and morphogen chamber (no gradient)): No D-V patterning was established
- NKX2.1 marker expression (ventral fate differentiation) (gradient group, 5 μM purmorphamine in morphogen chamber (with 5 μM IWP-2), five continuous days between day 14 and day 30, bottom half of organoid): higher expression level of NKX2.1 makers was established at the bottom half of the organoid
- PAX6 expression (dorsal fate differentiation) (gradient group, 5 μM purmorphamine in morphogen chamber, five continuous days between day 14 and day 30, top half of organoid): dominant expression of PAX6 was observed
